Patent US8815909B2, “Diaminocyclohexane compounds and uses thereof” (Bristol-Myers Squibb Company, priority 2011, dated 2014)
Counter-ions that a name gives are not always drawn. Like-named read-outs stand apart in the source and are kept apart here.

Target: T1, human Y4 receptor (Homo sapiens, UniProt P50391)
T1 construct: expressed in transfected cells
Assay: NPY4 cAMP HTRF Agonist Assay (inhibitory cAMP assay, Gi activation by Y4 agonism)
Assay type: cell-based
Summary of the method: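 Y4 agonism read as lowered forskolin-stimulated cAMP (HTRF, 1 h detection at room temperature). Stable human Y4 CHO clone, 5000 cells/well, incubated 30 min at room temperature with compounds plus forskolin and IBMX in PBS.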

[1] = TABLE 2, R2 is Phenyl-CN, read-out: hY4 CAMP EC50
[2] = human Y4 receptor, cAMP, read-out: hY4 CAMP EC50
[3] = human Y4 stable CHO clonal cells, forskolin + IBMX, read-out: NPY4 cAMP HTRF Agonist Assay EC50
[4] = second TABLE 1, R2 is Phenyl-CF3, read-out: hY4 CAMP EC50

T1 sequence (P50391 whole entry): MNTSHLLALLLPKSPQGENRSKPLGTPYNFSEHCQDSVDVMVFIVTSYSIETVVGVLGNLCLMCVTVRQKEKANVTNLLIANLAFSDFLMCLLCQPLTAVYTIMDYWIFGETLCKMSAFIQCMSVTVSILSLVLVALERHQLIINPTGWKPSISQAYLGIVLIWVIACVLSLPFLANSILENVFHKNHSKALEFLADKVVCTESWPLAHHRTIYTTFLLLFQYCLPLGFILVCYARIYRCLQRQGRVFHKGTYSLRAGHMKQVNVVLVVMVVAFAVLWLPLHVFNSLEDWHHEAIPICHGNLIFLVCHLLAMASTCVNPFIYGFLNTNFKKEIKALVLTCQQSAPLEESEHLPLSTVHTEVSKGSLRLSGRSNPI

Structure (SMILES): N#Cc1ccc(N2CCC[C@H](N[C@@H]3CCCC[C@H]3Nc3cc(-c4cccc5cn[nH]c45)ccn3)C2)cc1 [Example 209]
- EC50 [1]: 83 nM

Structure (SMILES): COC(=O)Nc1cccc(-c2cnc(N[C@@H]3CCCC[C@H]3N[C@H]3CCCN(c4ccc(-c5noc(C)n5)nc4)C3)o2)c1 [Example 382]
- EC50 (TABLE 7, R2 is Pyridinyl-oxadiazole-CH3, read-out: hY4 CAMP EC50): 1 nM

Structure (SMILES): Cc1nc(-c2ccc(N3C[C@@H]4C[C@H](N[C@@H]5CCCC[C@H]5Nc5cc(-c6cccc(C(N)=O)c6)ccn5)[C@H]3C4)cc2)no1 [Example 353]
- EC50 [2]: 1 nM

Structure (SMILES): Fc1cccc(-c2cnc(N[C@@H]3CCCC[C@H]3N[C@H]3CCCN(c4ccc(C(F)(F)F)cc4)C3)o2)c1 [Example 76, (1R,2R)—N1-(5-(3-Fluorophenyl)oxazol-2-yl)-N2-((S)-1-(4-(trifluoromethyl)phenyl)piperidin-3-yl)cyclohexane-1,2-diamine]
- EC50 [3]: 21 nM

Structure (SMILES): N#Cc1ccc(N2CCC[C@H](N[C@@H]3CCCC[C@H]3Nc3cn(-c4ccc(OC(F)(F)F)cc4)nn3)C2)cc1 [Example 202]
- EC50 [1]: 774 nM

Structure (SMILES): O=[N+]([O-])c1ccc(N2CCC[C@H](N[C@@H]3CCCC[C@H]3Nc3ncc(-c4ccc(C(F)(F)F)cc4)o3)C2)cc1 [Example 7, (1R,2R)—N1-((S)-1-(4-Nitrophenyl)piperidin-3-yl)-N2-(5-(4-(trifluoromethyl)phenyl)oxazol-2-yl)cyclohexane-1,2-diamine]
- EC50 [3]: 185 nM

Structure (SMILES): C=C(C)c1ccnc(N[C@@H]2CCCC[C@H]2N[C@H]2CCCN(c3ccc(C#N)cc3)C2)c1 [Example 234]
- EC50 [1]: 299 nM

Structure (SMILES): CC(C)COC(=O)Nc1cccc(-c2cnc(N[C@@H]3CCCC[C@H]3N[C@H]3CCCN(c4cnc(C(F)(F)F)nc4)C3)o2)c1 [Example 419]
- EC50 [2]: 7 nM

Structure (SMILES): CC(C)(O)c1cccc(-c2ccnc(N[C@@H]3CCCC[C@H]3N[C@H]3CCCN(c4ccc(C#N)nc4)C3)c2)c1 [Example 317]
- EC50 (TABLE 4, R2 is Pyridinyl-CN, read-out: hY4 CAMP EC50): 105 nM

Structure (SMILES): COC(=O)Nc1cccc(-c2ccnc(N[C@@H]3CCCC[C@H]3N[C@H]3CCCN(c4ccc(-c5noc(C)n5)cc4)C3)c2)c1 [Example 339]
- EC50 [2]: 0.1 nM

Structure (SMILES): COC(=O)Nc1cccc(-c2ccnc(N[C@@H]3CCCC[C@H]3N[C@H]3CCCN(c4ccc(-c5cncnc5)cc4)C3)c2)c1 [Example 515]
- EC50 [2]: 11 nM

Structure (SMILES): O=[N+]([O-])c1ccc(N2CCC[C@H](N[C@@H]3CCCC[C@H]3Nc3ncc(-c4ccc(F)cc4F)o3)C2)cc1 [Example 20, (1R,2R)—N1-(5-(2,4-Difluorophenyl)oxazol-2-yl)-N2-((S)-1-(4-nitrophenyl)piperidin-3-yl)cyclohexane-1,2-diamine]
- EC50 [3]: 10 nM

Structure (SMILES): CCOC(=O)Nc1cccc(-c2cnc(N[C@@H]3CCCC[C@H]3N[C@H]3CCCN(c4cnc(C(F)(F)F)nc4)C3)o2)c1 [Example 107, Ethyl (3-(2-(((1R,2R)-2-(((S)-1-(2-(trifluoromethyl)pyrimidin-5-yl)piperidin-3-yl)amino)cyclohexyl)amino)oxazol-5-yl)phenyl)carbamate]
- EC50 [3]: 4 nM

Structure (SMILES): N#Cc1ccc(N2C[C@@H]3C[C@H](N[C@@H]4CCCC[C@H]4Nc4ncc(-c5ccccc5F)o4)[C@H]2C3)cc1 [Example 223]
- EC50 [1]: 5 nM

Structure (SMILES): N#Cc1ccc(N2CCC[C@H](N[C@@H]3CCCC[C@H]3Nc3cc(-c4ccc(F)cc4)ccn3)C2)cc1 [Example 44, 4-((S)-3-((1R,2R)-2-(4-(4-Fluorophenyl)pyridin-2-ylamino)cyclohexylamino)piperidin-1-yl)benzonitrile tris-trifluoroacetate]
- EC50 [3]: 50 nM

Structure (SMILES): Cc1nc(-c2ccc(N3C[C@@H]4C[C@H](N[C@@H]5CCCC[C@H]5Nc5nccc(-c6ccccc6)n5)[C@H]3C4)cc2)no1 [Example 350]
- EC50 [2]: 9 nM

Structure (SMILES): N#Cc1cnc(N2CCC[C@H](N[C@@H]3CCCC[C@H]3Nc3ncc(-c4cccc(C(N)=O)c4)o3)C2)cn1 [Example 478]
- EC50 [2]: 25 nM

Structure (SMILES): N#Cc1ccc(N2CCC[C@H](N[C@@H]3CCCC[C@H]3Nc3nc4ccccc4o3)C2)cc1 [Example 55, 4-((S)-3-((1R,2R)-2-(Benzo[d]oxazol-2-ylamino)cyclohexylamino)piperidin-1-yl)benzonitrile]
- EC50 [3]: 463 nM

Structure (SMILES): N#Cc1cnc(N2C[C@@H]3C[C@H](N[C@@H]4CCCC[C@H]4Nc4cc(-c5cccc(C(N)=O)c5)ccn4)[C@H]2C3)nc1 [Example 442]
- EC50 [2]: 228 nM

Structure (SMILES): NC(=O)c1cccc(-c2cnc(N[C@@H]3CCCC[C@H]3N[C@H]3CCCN(c4ccc(-n5cncn5)cc4)C3)o2)c1 [Example 500]
- EC50 [2]: 101 nM

Structure (SMILES): FC(F)(F)c1ccc(N2CCC[C@H](N[C@@H]3CCCC[C@H]3Nc3ncc(Br)cn3)C2)cc1 [Example 182]
- EC50 [4]: 258 nM

Structure (SMILES): OCCCc1cccc(-c2ccnc(N[C@@H]3CCCC[C@H]3N[C@H]3CCCN(c4ccc(C(F)(F)F)cc4)C3)c2)c1 [Example 153]
- EC50 [4]: 31 nM

Structure (SMILES): Cc1noc(-c2ccc(N3CCC[C@H](N[C@@H]4CCCC[C@H]4Nc4cc(-c5cccc(OC(F)(F)F)c5)ccn4)C3)cc2)n1 [Example 363]
- EC50 [2]: 314 nM

Structure (SMILES): N#Cc1ccc(N2CCC[C@H](N[C@@H]3CCCC[C@H]3Nc3cc(-c4cccc(N)c4)ccn3)C2)cc1 [Example 279]
- EC50 [1]: 12 nM

Structure (SMILES): N#Cc1cccc(-c2cnc(N[C@@H]3CCCC[C@H]3N[C@H]3CCCN(c4ccc(C(F)(F)F)cc4)C3)o2)c1 [Example 160]
- EC50 [4]: 548 nM

Structure (SMILES): CC(=O)NCc1cccc(-c2ccnc(N[C@@H]3CCCC[C@H]3N[C@H]3CCCN(c4ccc(C(F)(F)F)cc4)C3)c2)c1 [Example 140]
- EC50 [4]: 1 nM

Structure (SMILES): N#Cc1ccc(N2CCC[C@H](N[C@@H]3CCCC[C@H]3Nc3cc(-c4ccccc4Cl)ccn3)C2)cc1 [Example 248]
- EC50 [1]: 557 nM

Structure (SMILES): COc1ccc(-c2ccnc(N[C@@H]3CCCC[C@H]3NC3CCCN(c4ccc(-c5nnc(C)o5)cc4)C3)c2)cc1 (stereo partly drawn) [Example 366]
- EC50 [2]: 323 nM

Structure (SMILES): CS(=O)(=O)Nc1cccc(-c2cnc(N[C@@H]3CCCC[C@H]3N[C@H]3CCCN(c4cnc(C(F)(F)F)nc4)C3)o2)c1 [Example 414]
- EC50 [2]: 5 nM

Structure (SMILES): Cc1cnn(-c2ccc(N3CCC[C@H](N[C@@H]4CCCC[C@H]4Nc4nccc(-c5ccccc5)n4)C3)cc2)c1 [Example 65, (1R,2R)—N1-((S)-1-(4-(4-Methyl-1H-pyrazol-1-yl)phenyl)piperidin-3-yl)-N2-(4-phenylpyrimidin-2-yl)cyclohexane-1,2-diamine bis-trifluoroacetate]
- EC50 [3]: 62 nM

Structure (SMILES): N#Cc1ccc(N2CCC[C@H](N[C@@H]3CCCC[C@H]3Nc3nnc(-c4ccccc4)o3)C2)cc1 [Example 54, 4-((S)-3-((1R,2R)-2-(5-Phenyl-1,3,4-oxadiazol-2-ylamino)cyclohexylamino)piperidin-1-yl)benzonitrile trifluoroacetate]
- EC50 [3]: 272 nM

Structure (SMILES): CC(C)(C)OC(=O)Nc1cccc(-c2cnc(N[C@@H]3CCCC[C@H]3N[C@H]3CCCN(c4ccc(C(F)(F)F)cc4)C3)o2)c1 [Example 169]
- EC50 [4]: 32 nM

Structure (SMILES): NC(=O)c1cccc(-c2ccnc(N[C@@H]3CCCC[C@H]3N[C@H]3C[C@@H]4C[C@H]3N(c3ncc(C(F)(F)F)cn3)C4)c2)c1 [Example 424]
- EC50 [2]: 69 nM

Structure (SMILES): NC(=O)c1cc(-c2cnc(N[C@@H]3CCCC[C@H]3N[C@H]3CCCN(c4cnc(C(F)(F)F)nc4)C3)o2)ccn1 [Example 425]
- EC50 [2]: 15 nM

Structure (SMILES): Cc1nc(-c2ncc(N3CCC[C@H](N[C@@H]4CCCC[C@H]4Nc4cc(-c5ccc(F)cc5F)ccn4)C3)cn2)no1 [Example 468]
- EC50 [2]: 9 nM

Structure (SMILES): N#Cc1ccc(N2C[C@@H]3C[C@H](N[C@@H]4CCCC[C@H]4Nc4cc(-c5cccc(C(N)=O)c5)ccn4)[C@H]2C3)cc1 [Example 231]
- EC50 [1]: 8 nM

Structure (SMILES): CN(C)c1cccc(-c2ccnc(N[C@@H]3CCCC[C@H]3N[C@H]3CCCN(c4ccc(C#N)cc4)C3)c2)c1 [Example 240]
- EC50 [1]: 72 nM

Structure (SMILES): CNC(=O)Cc1cccc(-c2ccnc(N[C@@H]3CCCC[C@H]3N[C@H]3CCCN(c4ccc(C(F)(F)F)cc4)C3)c2)c1 [Example 175]
- EC50 [4]: 2 nM

Structure (SMILES): O=[N+]([O-])c1ccc(N2CCC[C@H](N[C@@H]3CCCC[C@H]3Nc3ncc(-c4ccc(OC(F)F)cc4)o3)C2)cc1 [Example 13, (1R,2R)—N1-(5-(4-(Difluoromethoxy)phenyl)oxazol-2-yl)-N2-((S)-1-(4-nitrophenyl)piperidin-3-yl)cyclohexane-1,2-diamine]
- EC50 [3]: 3 nM

Structure (SMILES): CC(C)(O)Cc1cccc(-c2ccnc(N[C@@H]3CCCC[C@H]3N[C@H]3CCCN(c4ccc(C(F)(F)F)cc4)C3)c2)c1 [Example 189]
- EC50 [4]: 27 nM

Structure (SMILES): COC(=O)Nc1cccc(-c2ccnc(N[C@@H]3CCCC[C@H]3N[C@H]3CCCN(c4ccc(Br)cc4)C3)c2)c1 [Example 513]
- EC50 [2]: 2 nM

Structure (SMILES): Cc1nc2ccc(N3CCC[C@H](N[C@@H]4CCCC[C@H]4Nc4ncc(-c5cccc(C(=O)NC6CC6)c5)o4)C3)cn2n1 [Example 494]
- EC50 [2]: 42 nM

Structure (SMILES): NC(=O)c1cccc(-c2cnc(N[C@@H]3CCCC[C@H]3N[C@H]3CCCN(c4ccc(-c5noc(C6CC6)n5)cn4)C3)o2)c1 [Example 452]
- EC50 [2]: 3 nM

Structure (SMILES): CCCC#Cc1ccnc(N[C@@H]2CCCC[C@H]2N[C@H]2CCCN(c3ccc(C(F)(F)F)cc3)C2)c1 [Example 185]
- EC50 [4]: 218 nM

Structure (SMILES): COC(=O)Nc1cccc(-c2ccnc(N[C@@H]3CCCC[C@H]3N[C@H]3CCCN(c4cnc(C(F)(F)F)nc4)C3)c2)c1 [Example 413]
- EC50 [2]: 6 nM

Structure (SMILES): N#Cc1ccc(N2CCC[C@H](N[C@@H]3CCCC[C@H]3Nc3ncc(-c4ccccc4)o3)C2)cc1 [Example 57, 4-((S)-3-((1R,2R)-2-(5-Phenyloxazol-2-ylamino)cyclohexylamino)piperidin-1-yl)benzonitrile]
- EC50 [3]: 25 nM

Structure (SMILES): FC(F)(F)c1ccc(N2CCC[C@H](N[C@@H]3CCCC[C@H]3NC3=NOC(c4ccccc4)C3)C2)cc1 (stereo partly drawn) [Example 180]
- EC50 [4]: 54 nM

Structure (SMILES): FC(F)(F)c1ccc(N2CCC[C@H](N[C@@H]3CCCC[C@H]3Nc3cc(-c4cn[nH]c4)ccn3)C2)cc1 [Example 171]
- EC50 [4]: 142 nM
